From patent US9133195B2, “Quaternary ammonium salt compounds of spirocyclopiperazines, preparation methods and uses thereof” (Peking University, priority 2006, dated 2015) come the findings set out here.

The subject of one data set is Kunming mice. Kind of data set: Acetic acid-induced writhing test. Format: in vivo. Conditions: 31.0 umol/kg s.c., acetic acid i.p. after 30 min, writhing counted for 10 min; for inhibition in vivo at 31 µmol/kg: Mus musculus, sc. As to the method:
Kunming mice, male and female in half, were randomly divided into groups with 8 mice in each group. The following groups were established: the normal saline (NS) control group, in which normal saline was administered by subcutaneous injection (s.c.); the test groups, in which 31.0 umol/kg quaternary ammonium salts compounds of piperazines of the present invention was administered by s.c. All drugs were dissolved in normal saline before use. The drug was injected at the dose of 0.1 ml/10 g. After 30 min, 0.2 ml of 0.6% acetic acid was injected intraperitoneally for each mouse. After 2˜3 min, the writhing reactions such as abdominal constriction, stretch of body and hind limbs, and hip raise occurred. Five minutes after acetic acid injection, the numbers of writhing was counted for 10 min. The percentage of inhibition was determined by using the following formula (1): Inhibition %=[(The numbers of writhing of control group−the numbers of writhing of drag injection group)/the numbers of writhing of control group]×100% (1) 2 Experimental Results
This experiment was carried out according to that of Example 36.

For data set [1], the system named is mice. As to the kind of experiment: Spontaneous motion in mice. Format: in vivo. Conditions: 2.0 mg/kg. How it is done: (§1) All the following tests were carried out by using compound LXM-10 according to the routine methods.
Data set [2] has as its system mice. Kind of data set: Function of motion coordination (rota-rod). The format is in vivo. Conditions: 2.0 mg/kg. As to the method: as §1
The effect of muscle-relaxed effect on the analgesic effect of LXM-10 was also excluded.
On the technique in general: The rotarod test checks motor coordination on a turning rod.

The next data set can be described thus: Body temperature in mice. Format: in vivo. Conditions: 2.0 mg/kg. How it is done:
as §1

Structures can show the parent of a compound that is named as a salt.

Take “8-(4-chloro-3-pyridyl)-5,8-diazaspiro[4.5]decane bromide [LXM-24]”: the “Inhibition(%) of writhing” value in the data set on Kunming mice stood at 46%.
A word on the melting point: it is the temperature, or range, at which the solid turns liquid. The molecule `c1ccc(N2CC[N+]3(CCCC3)CC2)cc1` (as salt: bromide) [LXM-18, 8-phenyl-5,8-diazaspiro[4.5]decane bromide] yielded a melting point of 208 to 209 °C.
Molecule `COc1ccc(N2CC[N+]3(CCCC3)CC2)cc1` (as salt: bromide) [LXM-19, 8-(p-methoxyphenyl)-5,8-diazaspiro[4.5]decane bromide] had a melting point of 201 to 203 °C.
For the molecule `CC1CC[N+]2(CC1)CCN(CCc1ccccc1)CC2` (as salt: chloride) [LXM-6, 3-methyl-9-(β-phenylethyl)-6,9-diazaspiro[5.5]undecane chloride], the melting point is 230 °C (dec.).
Same read-out and setting: for `C=CCN1CC[N+]2(CC1)CC(C)OC(C)C2` (stereo not shown) (as salt: chloride) [LXM-28, 2,4-dimethyl-9-allyl-3-oxo-6,9-diazaspiro[5.5]undecane chloride] the value was 236 °C (dec.).
On the same count and under the same terms, to `CC1C[N+]2(CCN(C/C=C/c3ccccc3)CC2)CC(C)O1` (stereo not shown) (as salt: chloride) [LXM-30, 2,4-dimethyl-9-cinnamenyl-3-oxo-6,9-diazaspiro[5.5] undecane chloride] belongs 266 to 268 °C; to `CC1C[N+]2(CCN(CCc3ccccn3)CC2)CC(C)O1` (stereo not shown) (as salt: chloride) [LXM-31], 247 °C.
With `CN1C(=O)CN=C(c2ccccc2)c2cc(Cl)ccc21` [Diazepam, reference compound], the “Numbers of movement after treatment” value in the data set on mice [1] (0.5 h) was 5.37 ± 1.64; with mice [1] (2.0 h), 10.8 ± 3.10; with mice [1] (3.5 h), 18.2 ± 3.61. The same molecule showed a Numbers of movement in the data set on mice [1] (before treatment) of 51.5 ± 5.15. Further, the entries for the “Time of falling down from rota-rod after treatment” value in the data set on mice [2] (0.5 h), with mice [2] (2.0 h) and in the data set on mice [2] (3.5 h) were 48.8 ± 14.0 s, 73.3 ± 14.1 s and 111.7 ± 6.70 s, respectively. The “Time of falling down from rota-rod” value in the data set on mice [2] (before treatment) is 102.5 ± 6.48 s. Moreover, the “Rectal temperature after treatment” value in “Body temperature in mice” (0.5 h) is 35.1 ± 0.26 °C; in “Body temperature in mice” (2.0 h), 35.9 ± 0.35 °C; in the data set “Body temperature in mice” (3.5 h), 36.5 ± 0.31 °C. Also, the Rectal temperature in the data set “Body temperature in mice” (before treatment) was found to be 37.6 ± 0.17 °C.
One may read the inhibition in vivo as the drop in the measured response relative to a control, in per cent. Read a high inhibition in vivo as strong suppression. `CC1CC[N+]2(CC1)CCN(CCc1ccccc1)CC2` [LXM-6, 3-methyl-9-(β-phenylethyl)-6,9-diazaspiro[5.5]undecane chloride] showed an inhibition in vivo at 31 µmol/kg with Kunming mice of 30%.
On the same count and under the same terms, to `CC1C[N+]2(CCN(CCc3cccc(F)c3)CC2)CC(C)O1` (stereo not drawn) [LXM-8, 2,4-dimethyl-9-β-(m-fluorophenyl)ethyl-3-oxo-6,9-diazaspiro[5.5]undecane chloride] belongs 55%; to `CC1C[N+]2(CCN(CCc3cccc([N+](=O)[O-])c3)CC2)CC(C)S1` (stereo not drawn) [LXM-9, 2,4-dimethyl-9-β-(m-nitrophenyl)ethyl-3-thio-6,9-diazaspiro[5.5]undecane chloride], 62%.
On to `Clc1ccc(N2CC[N+]3(CCCC3)CC2)nn1` [LXM-11, 8-(4-chloro-2,3-pyridazinyl)-5,8-diazaspiro[4.5]decane chloride], for which the inhibition in vivo at 31 µmol/kg with Kunming mice is 44%.
Still for that read-out and setting: for `O=[N+]([O-])c1cccc(N2CC[N+]3(CCCC3)CC2)c1` [LXM-16, 8-(m-nitrophenyl)-5,8-diazaspiro[4.5]decane bromide] the value was 61%.
Take `c1ccc(N2CC[N+]3(CCCC3)CC2)cc1` [LXM-18, 8-phenyl-5,8-diazaspiro[4.5]decane bromide]: in the data set with Kunming mice, the inhibition in vivo at 31 µmol/kg amounted to 20%.
Molecule `COc1ccc(N2CC[N+]3(CCCC3)CC2)cc1` [LXM-19, 8-(p-methoxyphenyl)-5,8-diazaspiro[4.5]decane bromide] registered an inhibition in vivo at 31 µmol/kg in the data set on Kunming mice of 56%.
On the same count and under the same terms, for `Oc1cccc(N2CC[N+]3(CCCC3)CC2)c1` [LXM-20, 8-(m-hydroxyphenyl)-5,8-diazaspiro[4.5]decane bromide] the value was 53%; for `Fc1cccc(N2CC[N+]3(CCCC3)CC2)c1` [LXM-21, 8-(m-fluorophenyl)-5,8-diazaspiro[4.5]decane bromide], 47%; for `N#Cc1cccc(N2CC[N+]3(CCCC3)CC2)c1` [LXM-22, 8-(m-cyanophenyl)-5,8-diazaspiro[4.5]decane bromide], 56%.
For `CCOC(=O)c1cccc(N2CC[N+]3(CCCC3)CC2)c1` [LXM-23, 8-(m-ethoxycarbonylphenyl)-5,8-diazaspiro[4.5]decane bromide], in the data set on Kunming mice, the inhibition in vivo at 31 µmol/kg was 39%.
Same read-out and setting: to `c1cncc(N2CC[N+]3(CCCC3)CC2)c1` [LXM-25, 8-(3-pyridyl)-5,8-diazaspiro[4.5]decane bromide] belongs 37%; to `C=CCN1CC[N+]2(CC1)CC(C)OC(C)C2` (stereo not shown) [LXM-28, 2,4-dimethyl-9-allyl-3-oxo-6,9-diazaspiro[5.5]undecane chloride], 49%.
For the molecule `CC1C[N+]2(CCN(C/C=C/c3ccccc3)CC2)CC(C)O1` (stereo not shown) [LXM-30, 2,4-dimethyl-9-cinnamenyl-3-oxo-6,9-diazaspiro[5.5] undecane chloride], the inhibition in vivo at 31 µmol/kg with Kunming mice was 43%.
Molecule `CC1C[N+]2(CCN(CCc3ccccn3)CC2)CC(C)O1` (stereo not shown) [LXM-31] came in with an inhibition in vivo at 31 µmol/kg in the data set on Kunming mice of 58%.
